This is an account of results in article PMC9114338 (Scientific Reports, 2022).

The structures appear in SMILES notation.

Series [1] in a line: Compartmental PK model, IV and SQ co-modeling. It counts as in vivo, C57BL/6 J mice. To be noted: mouse. From the text:
The results of the simultaneous model (co-model) are summarized in Table 2, and the parameters were used in subsequent simulation exercises (vide infra).
The change in amount over time within each compartment was related to the difference in the input into the compartment (e.g., the Dose × F × Ka term into compartment C1) and the output from the compartment (e.g., the Concentration × Kout term for compartment Ccell). Two compartments –plus a dosing compartment– best described TFV plasma PKs.
A third compartment was used to model the PKs of PBMC TFV-DP concentrations. Intracellular PKs of TFV-DP were linked to the plasma TFV concentration via saturable uptake (Vmax and Km) with maximum velocity of uptake and first order elimination kinetics, Kout. […] C1 is the central compartment, representing the TFV plasma concentration in the body. The second compartment C2 represents the peripheral tissues, and the cellular compartment Ccell represents the concentrations of TFV-DP in PBMCs. Parameters CLp and Vp describe clearance and volume of the peripheral compartment (C2) and Ka and CL are the rates of TFV uptake and clearance into/out of the central compartment (C1), respectively. […] The physiological PBMC volume was assumed to be 7.55 × 10^–7 L/10^6 cells, to remain consistent with Duwal et al.[44] for the model analysis, while all other parameters were estimated in the model. The ordinary differential equations (Eqs. 1–3) used in the final model are presented below:1 d/dtC1t=F·Ka·Dt/V-C1t·CL/V-CLp/V·C1t+CLp/Vp·C2t 2 d/dtC2t=[…] 3 d/dtCcellt=Vmax·C1t/Km-Ccellt·Kout
Compartmental analyses were performed in Phoenix software (version 8.3, Certara, Princeton, NJ) using a published, simple, structural PK model describing the TFV kinetics. IV and SQ data were modeled simultaneously. Due to the destructive nature of the blood sampling, data were modeled using a naïve-pooled algorithm, without inter-animal variability. The resulting systemic parameters, along with the implant in vivo release rates on a per animal basis, were used to co-model (predict) concentration data in mice following during implant dosing.

Series [2] in a line: Intravenous TAF pharmacokinetic mouse study (plasma, PBMC, tissue homogenate). The conditions noted are these: female, C57BL/6 J, mouse, iv, 0.5 mg. The class given is in vivo, C57BL/6 J mice. The protocol: C57BL/6 J Mice (9 groups of 4 animals each; 36 mice total) were administered the study product (0.5 mg dose, 0.1 mL) by intravenous (IV) injection. Animals (N = 4) were sacrificed at the following timepoints: Day 1 (1, 3, 6, 12, 24 h), Day 2, 4, 8, and 14. Blood was collected by exsanguination along with select tissue specimens (vide infra).
The isolation of plasma and PBMCs from blood samples was carried out in a laminar flow hood using aseptic techniques, and the entire process was completed in under 45 min to minimize analyte metabolism. Blood was transferred into collection tubes containing sodium citrate (final concentration, 0.4% w/v), diluted using one volume equivalent of 1 × PBS solution, and mixed by inversion. The minimum final volume was 4.0 mL. Prior to the addition of blood samples, Ficoll-Paque media (MilliporeSigma, Burlington, MA, 3.2 mL) was transferred into a 12 mL LeucoSep tube (Greiner, Monroe, NC) and centrifuged at 1000 g for 20 s at room temperature, causing the media to settle just below the porous barrier. The homogenous, diluted blood-PBS mixture was transferred into the prepared LeucoSep tube and centrifuged at 1000 g for 10 min at room temperature, resulting in the formation of three layers above the porous barrier: (A) top layer, consisting of the plasma fraction; (B) middle, interface layer, containing the PBMCs; and (C) thin lower layer, just above the barrier, consisting of Ficoll-Paque media. Layer A (plasma) was transferred to empty 1.5 mL microfuge tubes in 0.5 mL aliquots, and flash-frozen in liquid nitrogen. Layer B (PBMCs) was transferred into an empty 15 mL centrifuge tube and PBS added to the 12 mL mark, followed by gentle inversion mixing. The suspension was centrifuged at 400 g for 15 min, the supernatant removed, and the pellet resuspended in PBS (10 mL) by gentle pipetting. An aliquot (10 µL) was removed from the suspension for cell counting and the remaining sample was centrifuged at 400 g for 15 min. The supernatant was removed without disturbing the cell pellet, which was treated with ice-cold 70% v/v methanol in molecular-grade water (1.0 mL). The mixture was mixed lightly by vortex agitation to lyse the cells, followed by transfer to a 2.0 mL cryovial that was flash-frozen in liquid nitrogen.
Vaginal, rectal, spleen, and thymus tissue samples were collected from sacrificed animals at Day 1 (12, 24 h), Day 4, and 8; rectal tissue samples were not collected at 12 h. The samples were transferred into pre-weighed sample tubes, weighed, and flash-frozen in liquid nitrogen.
PBMC results were normalized to the number of cells and reported as fmol/10^6 cells or as intracellular concentration based on cell volume, in nM. Tissue results were normalized to sample mass and reported as ng mg^-1 or fmol mg^-1.

In the case of `C[C@H](Cn1cnc2c(N)ncnc21)OCP(=O)(O)O` [TFV, tenofovir], the clearance in series [1] (C57BL/6 J, plasma, other: intravenous and subcutaneous injection, co-modelled, 0.5 mg, IV and SQ co-modeling, read-out: CL, total body clearance (converted)) is 4.48 mL/min. The half-life in series [1] (C57BL/6 J, plasma, other: intravenous and subcutaneous injection, co-modelled, 0.5 mg, IV and SQ co-modeling, read-out: Elimination half-life t1/2, plasma TFV (converted)) was 53 h; in series [1] (C57BL/6 J, plasma, other: intravenous and subcutaneous injection, co-modelled, 0.5 mg, IV and SQ co-modeling, read-out: t1/2, elimination half-life, plasma TFV (converted)), 52.8 h; in series [2] (rectal tissue, read-out: Terminal half-life in rectal tissue (NCA) (converted)) it was 43 h; in series [2] (spleen, read-out: Terminal half-life in spleen (NCA) (converted)) it was 30.5 h; in series [2] (thymus, read-out: Terminal half-life in thymus (NCA) (converted)), 20.1 h; in series [2] (vaginal tissue, read-out: Terminal half-life in vaginal tissue (NCA) (converted)), 39.1 h. In addition, in series [1] (C57BL/6 J, plasma, other: intravenous and subcutaneous injection, co-modelled, 0.5 mg, IV and SQ co-modeling, read-out: V, volume of distribution of the central compartment), the Vd is 4.59 L. The “Vmax/Km as share of the non-saturable clearance” value in series [1] (in vivo) is listed as 2%.
